Data published in publication PMC9773825.

Assay: not told

- log partition chloroform / water/buffer (pH 3.5, 25): 1.14 log10
- log partition octanol / water/buffer (pH 3.5, 25): −0.30 log10
- log partition chloroform / water/buffer (pH 5.5, 25): 1.48 log10
- log partition octanol / water/buffer (pH 5.5, 25): −0.16 log10
- log partition chloroform / water/buffer (pH 7.4, 25): 1.46 log10
- log partition octanol / water/buffer (pH 7.4, 25): −0.26 log10
SMILES: CON(C)Cc1ccc(O)c2c1CC1CC3C(N(C)C)C(O)=C(C(N)=O)C(=O)C3(O)C(O)=C1C2=O (stereo not drawn)
